Source: patent US8349619B2, “Method for detecting and analyzing protein interactions in-vivo” (Sygnis Bioscience GmbH & Co. KG, priority 2002, dated 2013)

Assays:
[1] = test system: interaction of G-ME2bHLH and V-ND in PC12 20.4 cells; experiment: Cre recombinase-based two-hybrid system in PC12 cell line 20.4 with transient addition of TSA, GFP fluorescence; design: species or system rat; settings: 3 μM TSA for 12 h; two days after transfection of G-ME2bHLH and V-ND; without TSA no GFP-positive cells
Text: FIG. 8 depicts GFP-fluorescence and phase contrast images of the stable PC12 cell line #20.4 two days after transfection with GV, G-ME2bHLH, V-ND and G-ME2bHLH with V-ND, with addition of TSA. […] After cotransfection of the two-hybrid interaction partners V-ND and G-ME2bHLH, GFP fluorescence is likewise detectable under the TSA culturing conditions (bottom left). Under control conditions, transfection of V-ND or G-ME2bHLH, no GFP fluorescence is detectable (center left).
As described in example 4, the PC12 cell line 20.4 expresses all components of the Cre-based reporter system in a completely functional manner. In order to test whether the cell line 20.4 can be utilized for application in the two-hybrid system (see FIG. 2), the known interaction partners described in example 3 were analyzed. Two days after cotransfection of the interaction partners G-ME2bHLH and V-ND, no GFP-positive cells were detectable (see FIG. 7, bottom left). After single transfections of G-ME2bHLH and V-ND, GFP-positive cells were likewise not detectable (see FIG. 7, central figures, left). […] Only after cotransfection of the interaction partners GBR2cc and V-GBR1cc, a multiplicity of GFP-positive cells were detected, after single transfection and cotransfection of the cc deletion mutants, GBR2ccDel and V-GBR1ccDel, no GFP-positive cells were microscopically detectable (see FIG. 9, bottom bar).

PC12 20.4 cells = experiment: Cell survival of PC12 20.4 cells after TSA addition (phase contrast images); assay type: cell-based, rat; settings: 3 μM TSA for 12 h
Method: As described in example 4, the PC12 cell line 20.4 expresses all components of the Cre-based reporter system in a completely functional manner. In order to test whether the cell line 20.4 can be utilized for application in the two-hybrid system (see FIG. 2), the known interaction partners described in example 3 were analyzed. Two days after cotransfection of the interaction partners G-ME2bHLH and V-ND, no GFP-positive cells were detectable (see FIG. 7, bottom left). After single transfections of G-ME2bHLH and V-ND, GFP-positive cells were likewise not detectable (see FIG. 7, central figures, left). […] Therefore, the same two-hybrid analysis was carried out in the following experiments, after transient addition of trichostatin A (3 μM, for 12 h, Sigma) (FIG. 8). […] After single transfections of G-ME2bHLH and V-ND, no GFP-positive cells were detectable (see FIG. 8, central figures, left). […] The TSA concentration with the best ratio of cell survival and nearly background-free detection of the interaction of G-ME2bHLH and V-ND, was […] for 12 h. […] Only after cotransfection of the interaction partners GBR2cc and V-GBR1cc, a multiplicity of GFP-positive cells were detected, after single transfection and cotransfection of the cc deletion mutants, GBR2ccDel and V-GBR1ccDel, no GFP-positive cells were microscopically detectable (see FIG. 9, bottom bar).

SMILES: CC(/C=C/C(=O)NO)=C\[C@@H](C)C(=O)c1ccc(N(C)C)cc1 [TSA, trichostatin A]
- GFP-positive cells detected after transient addition of TSA [1]: a multiplicity of GFP-positive cells were now detected
- number of surviving cells (PC12 20.4 cells): lower number of surviving cells
